# Measured values from the supplement of paper PMC10307832.
# Assays:
# Experiment in all cases: relative viability (nuclei count vs DMSO), 5 days (fraction); higher = more cells survive
# LCLC-103H = tested on: LCLC-103H
# Summary of the method: (§1)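 Lung cancer cell lines, seeded in 1536-well plates, were treated the following day by pin tool with a single drug or with five library-drug doses (not always all listed) in √10 steps on top of a fixed anchor-drug dose. Cells were fixed and nuclei stained in one step after 5 days, and nuclei were counted. Relative viability is the nuclei count for treated wells divided by that for vehicle wells, reported as medians of duplicate plates.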
# LXF-289 = tested on: LXF-289
# Summary of the method: as §1
# NCI-H1355 = tested on: NCI-H1355
# Summary of the method: as §1
# NCI-H1651 = tested on: NCI-H1651
# Summary of the method: as §1
# NCI-H1755 = tested on: NCI-H1755
# Summary of the method: as §1
# NCI-H1915 = tested on: NCI-H1915
# Summary of the method: as §1
# NCI-H2347 = tested on: NCI-H2347
# Summary of the method: as §1
# NCI-H3122 = tested on: NCI-H3122
# Summary of the method: as §1
# NCI-H322M = tested on: NCI-H322M
# Summary of the method: as §1
# NCI-H441 = tested on: NCI-H441
# Summary of the method: as §1
# NCI-H460 = tested on: NCI-H460
# Summary of the method: as §1
# NCI-H520 = tested on: NCI-H520
# Summary of the method: as §1
# NCI-H522 = tested on: NCI-H522
# Summary of the method: as §1
# NCI-H596 = tested on: NCI-H596
# Summary of the method: as §1
# NCI-H661 = tested on: NCI-H661
# Summary of the method: as §1
# NCI-H727 = tested on: NCI-H727
# Summary of the method: as §1
# PC-14 = tested on: PC-14
# Summary of the method: as §1
# RERF-LC-KJ = tested on: RERF-LC-KJ
# Summary of the method: as §1
# SK-MES-1 = tested on: SK-MES-1
# Summary of the method: as §1
# SW 900 = tested on: SW 900
# Summary of the method: as §1
smiles,measurement,setting,value
CCN(CC)CCCCNc1ncc2cc(-c3cc(OC)cc(OC)c3)c(NC(=O)NC(C)(C)C)nc2n1 + Cc1cc(Nc2cc(N3CCN(C)CC3)nc(Sc3ccc(NC(=O)C4CC4)cc3)n2)n[nH]1 [Tozasertib] (partner 0.1 µM),relative viability,LCLC-103H; first compound 0.01 µM,0.588
same,relative viability,LCLC-103H; first compound 0.03162 µM,0.486
same,relative viability,LCLC-103H; first compound 0.1 µM,0.54
same,relative viability,LCLC-103H; first compound 0.3162 µM,0.452
same,relative viability,LCLC-103H; first compound 1 µM,0.31
same,relative viability,LXF-289; first compound 0.01 µM,0.201
same,relative viability,LXF-289; first compound 0.03162 µM,0.219
same,relative viability,LXF-289; first compound 0.1 µM,0.268
same,relative viability,LXF-289; first compound 0.3162 µM,0.186
same,relative viability,LXF-289; first compound 1 µM,0.156
same,relative viability,NCI-H1355; first compound 0.01 µM,0.547
same,relative viability,NCI-H1355; first compound 0.03162 µM,0.559
same,relative viability,NCI-H1355; first compound 0.1 µM,0.52
same,relative viability,NCI-H1355; first compound 0.3162 µM,0.531
same,relative viability,NCI-H1355; first compound 1 µM,0.411
same,relative viability,NCI-H1651; first compound 0.01 µM,0.747
same,relative viability,NCI-H1651; first compound 0.03162 µM,0.716
same,relative viability,NCI-H1651; first compound 0.1 µM,0.907
same,relative viability,NCI-H1651; first compound 0.3162 µM,0.714
same,relative viability,NCI-H1651; first compound 1 µM,0.661
same,relative viability,NCI-H1755; first compound 0.01 µM,0.624
same,relative viability,NCI-H1755; first compound 0.03162 µM,0.61
same,relative viability,NCI-H1755; first compound 0.1 µM,0.607
same,relative viability,NCI-H1755; first compound 0.3162 µM,0.622
same,relative viability,NCI-H1755; first compound 1 µM,0.535
same,relative viability,NCI-H1915; first compound 0.01 µM,0.464
same,relative viability,NCI-H1915; first compound 0.03162 µM,0.489
same,relative viability,NCI-H1915; first compound 0.1 µM,0.48
same,relative viability,NCI-H1915; first compound 0.3162 µM,0.461
same,relative viability,NCI-H1915; first compound 1 µM,0.348
same,relative viability,NCI-H2347; first compound 0.01 µM,0.509
same,relative viability,NCI-H2347; first compound 0.03162 µM,0.508
same,relative viability,NCI-H2347; first compound 0.1 µM,0.718
same,relative viability,NCI-H2347; first compound 0.3162 µM,0.607
same,relative viability,NCI-H2347; first compound 1 µM,0.551
same,relative viability,NCI-H3122; first compound 0.01 µM,0.559
same,relative viability,NCI-H3122; first compound 0.03162 µM,0.439
same,relative viability,NCI-H3122; first compound 0.1 µM,0.464
same,relative viability,NCI-H3122; first compound 0.3162 µM,0.326
same,relative viability,NCI-H3122; first compound 1 µM,0.364
same,relative viability,NCI-H322M; first compound 0.01 µM,0.717
same,relative viability,NCI-H322M; first compound 0.03162 µM,0.49
same,relative viability,NCI-H322M; first compound 0.1 µM,0.589
same,relative viability,NCI-H322M; first compound 0.3162 µM,0.57
same,relative viability,NCI-H322M; first compound 1 µM,0.448
same,relative viability,NCI-H441; first compound 0.01 µM,0.544
same,relative viability,NCI-H441; first compound 0.03162 µM,0.714
same,relative viability,NCI-H441; first compound 0.1 µM,0.821
same,relative viability,NCI-H441; first compound 0.3162 µM,0.616
same,relative viability,NCI-H441; first compound 1 µM,0.597
same,relative viability,NCI-H460; first compound 0.01 µM,0.458
same,relative viability,NCI-H460; first compound 0.03162 µM,0.66
same,relative viability,NCI-H460; first compound 0.1 µM,0.477
same,relative viability,NCI-H460; first compound 0.3162 µM,0.474
same,relative viability,NCI-H460; first compound 1 µM,0.311
same,relative viability,NCI-H520; first compound 0.01 µM,0.383
same,relative viability,NCI-H520; first compound 0.03162 µM,0.452
same,relative viability,NCI-H520; first compound 0.1 µM,0.486
same,relative viability,NCI-H520; first compound 0.3162 µM,0.388
same,relative viability,NCI-H520; first compound 1 µM,0.261
same,relative viability,NCI-H522; first compound 0.01 µM,0.529
same,relative viability,NCI-H522; first compound 0.03162 µM,0.604
same,relative viability,NCI-H522; first compound 0.1 µM,0.575
same,relative viability,NCI-H522; first compound 0.3162 µM,0.49
same,relative viability,NCI-H522; first compound 1 µM,0.534
same,relative viability,NCI-H596; first compound 0.01 µM,0.911
same,relative viability,NCI-H596; first compound 0.03162 µM,0.903
same,relative viability,NCI-H596; first compound 0.1 µM,1.05
same,relative viability,NCI-H596; first compound 0.3162 µM,0.828
same,relative viability,NCI-H596; first compound 1 µM,0.747
same,relative viability,NCI-H661; first compound 0.01 µM,0.38
same,relative viability,NCI-H661; first compound 0.03162 µM,0.327
same,relative viability,NCI-H661; first compound 0.1 µM,0.366
same,relative viability,NCI-H661; first compound 0.3162 µM,0.36
same,relative viability,NCI-H661; first compound 1 µM,0.36
same,relative viability,NCI-H727; first compound 0.01 µM,0.661
same,relative viability,NCI-H727; first compound 0.03162 µM,0.521
same,relative viability,NCI-H727; first compound 0.1 µM,0.571
same,relative viability,NCI-H727; first compound 0.3162 µM,0.659
same,relative viability,NCI-H727; first compound 1 µM,0.525
same,relative viability,PC-14; first compound 0.01 µM,0.689
same,relative viability,PC-14; first compound 0.03162 µM,0.578
same,relative viability,PC-14; first compound 0.1 µM,0.62
same,relative viability,PC-14; first compound 0.3162 µM,0.685
same,relative viability,PC-14; first compound 1 µM,0.598
same,relative viability,RERF-LC-KJ; first compound 0.01 µM,0.547
same,relative viability,RERF-LC-KJ; first compound 0.03162 µM,0.617
same,relative viability,RERF-LC-KJ; first compound 0.1 µM,0.51
same,relative viability,RERF-LC-KJ; first compound 0.3162 µM,0.567
same,relative viability,RERF-LC-KJ; first compound 1 µM,0.489
same,relative viability,SK-MES-1; first compound 0.01 µM,1.01
same,relative viability,SK-MES-1; first compound 0.03162 µM,1.02
same,relative viability,SK-MES-1; first compound 0.1 µM,1.1
same,relative viability,SK-MES-1; first compound 0.3162 µM,1.03
same,relative viability,SK-MES-1; first compound 1 µM,0.879
same,relative viability,SW 900; first compound 0.01 µM,0.662
same,relative viability,SW 900; first compound 0.03162 µM,0.573
same,relative viability,SW 900; first compound 0.3162 µM,0.451
same,relative viability,SW 900; first compound 1 µM,0.382
